Results taken from publication PMC2745115 (Bioorganic & medicinal chemistry letters, 2008).

Key:
[1] = humans; cited from earlier work
[2] = rhesus monkeys; cited from earlier work
μ opioid receptor = μ opioid receptor (Homo sapiens, UniProt P35372); test: Inhibition of [3H]DAMGO binding to CHO cell membranes; conditions: relative to 4d
[3] = Hydrolysis stability of esters by HPLC; type: physicochemical; conditions: pH 7.4, 25 mM phosphate buffer, 37 C, after 24 hours
κ opioid receptor = κ opioid receptor (Homo sapiens, UniProt P41145); test: Inhibition of [3H]U69,593 binding to CHO cell membranes; conditions: relative to butorphanol
Chain of κ opioid receptor (P41145 whole entry): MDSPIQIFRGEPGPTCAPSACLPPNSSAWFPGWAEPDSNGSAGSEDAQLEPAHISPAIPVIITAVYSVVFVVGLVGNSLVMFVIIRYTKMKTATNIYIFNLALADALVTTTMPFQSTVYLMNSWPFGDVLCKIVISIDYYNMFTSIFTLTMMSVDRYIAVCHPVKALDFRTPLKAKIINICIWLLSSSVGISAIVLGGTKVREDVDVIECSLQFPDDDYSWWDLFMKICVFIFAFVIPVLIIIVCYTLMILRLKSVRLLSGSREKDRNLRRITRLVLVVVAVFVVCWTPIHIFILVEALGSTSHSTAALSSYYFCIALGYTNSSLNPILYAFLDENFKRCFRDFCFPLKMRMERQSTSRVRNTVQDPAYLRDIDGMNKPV

Chain of μ opioid receptor (P35372 whole entry, species assumed): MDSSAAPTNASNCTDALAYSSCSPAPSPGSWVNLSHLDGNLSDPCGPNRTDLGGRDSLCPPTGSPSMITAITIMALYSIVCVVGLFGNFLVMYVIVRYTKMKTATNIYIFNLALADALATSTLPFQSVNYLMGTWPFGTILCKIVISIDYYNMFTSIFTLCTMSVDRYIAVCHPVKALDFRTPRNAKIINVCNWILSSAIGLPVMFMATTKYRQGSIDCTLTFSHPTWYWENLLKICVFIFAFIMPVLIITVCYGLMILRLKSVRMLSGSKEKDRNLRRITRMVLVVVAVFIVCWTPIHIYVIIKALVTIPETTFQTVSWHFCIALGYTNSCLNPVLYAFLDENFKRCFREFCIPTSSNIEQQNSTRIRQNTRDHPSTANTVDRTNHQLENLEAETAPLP

Structure (SMILES): Oc1ccc2c(c1)[C@@]13CCCC[C@@]1(O)[C@@H](C2)N(CC1CCC1)CC3 [3b, butorphanol]
- analgesic potency, times that of meperdine [1]: 30 – 40 times
- analgesic potency, times that of morphine [1]: 4 – 8 times
- analgesic potency, times that of pentazocine [1]: 16 – 24 times
- cocaine self-administration [2]: decrease cocaine self-administration
- food-maintained responding [2]: without producing a significant change

Structure (SMILES): Cl.O[C@@]12CCCC[C@@]13CCN(CC1CCC1)[C@@H]2Cc1ccc(OCCc2ccccc2)cc13 [5d]
- less binding affinity at the μ opioid receptor than 4d (μ opioid receptor): 164 fold

Structure (SMILES): Cc1ccc(C(C)C(=O)Oc2ccc3c(c2)[C@@]24CCCC[C@@]2(O)[C@@H](C3)N(CC2CCC2)CC4)cc1.Cl (stereo partly drawn) [4c]
- hydrolysis of the esters [3]: No hydrolysis

Structure (SMILES): Cl.O=C(Cc1ccccc1)Oc1ccc2c(c1)[C@@]13CCCC[C@@]1(O)[C@@H](C2)N(CC1CCC1)CC3 [4b]
- hydrolysis of the esters [3]: No hydrolysis

Structure (SMILES): Cl.O=C(COc1ccccc1)Oc1ccc2c(c1)[C@@]13CCCC[C@@]1(O)[C@@H](C2)N(CC1CCC1)CC3 [4d, (-)-N-cyclobutylmethylmorphinan-3-yl-14-ol phenoxyacetate]
- more potent binder at the κ receptor than butorphanol (κ opioid receptor): four-fold
